From US11739069B2, “Modulators of resistant androgen receptor” (priority 2012, dated 2023)
Substitutions are numbered along the chain they refer to. Entries after “also recorded” stand apart in the source; their conditions may differ.

Assays:
[1] = tested on: VCaP cells expressing wild type androgen receptor; experiment: In vitro cell viability assay, VCaP cells expressing wild type AR (FIG. 17); format: cell-based
[2] = target: T1, AR F876L (Homo sapiens, UniProt P10275, DEL79-80/DUP473-473/F877L); experiment: AR luciferase reporter assay, AR F876L versus AR WT (FIG. 26); format: cell-based
T1 construct: expressed in transfected cells
T1 sequence (P10275 with tags, fused parts or gaps DEL79-80/DUP473-473/F877L): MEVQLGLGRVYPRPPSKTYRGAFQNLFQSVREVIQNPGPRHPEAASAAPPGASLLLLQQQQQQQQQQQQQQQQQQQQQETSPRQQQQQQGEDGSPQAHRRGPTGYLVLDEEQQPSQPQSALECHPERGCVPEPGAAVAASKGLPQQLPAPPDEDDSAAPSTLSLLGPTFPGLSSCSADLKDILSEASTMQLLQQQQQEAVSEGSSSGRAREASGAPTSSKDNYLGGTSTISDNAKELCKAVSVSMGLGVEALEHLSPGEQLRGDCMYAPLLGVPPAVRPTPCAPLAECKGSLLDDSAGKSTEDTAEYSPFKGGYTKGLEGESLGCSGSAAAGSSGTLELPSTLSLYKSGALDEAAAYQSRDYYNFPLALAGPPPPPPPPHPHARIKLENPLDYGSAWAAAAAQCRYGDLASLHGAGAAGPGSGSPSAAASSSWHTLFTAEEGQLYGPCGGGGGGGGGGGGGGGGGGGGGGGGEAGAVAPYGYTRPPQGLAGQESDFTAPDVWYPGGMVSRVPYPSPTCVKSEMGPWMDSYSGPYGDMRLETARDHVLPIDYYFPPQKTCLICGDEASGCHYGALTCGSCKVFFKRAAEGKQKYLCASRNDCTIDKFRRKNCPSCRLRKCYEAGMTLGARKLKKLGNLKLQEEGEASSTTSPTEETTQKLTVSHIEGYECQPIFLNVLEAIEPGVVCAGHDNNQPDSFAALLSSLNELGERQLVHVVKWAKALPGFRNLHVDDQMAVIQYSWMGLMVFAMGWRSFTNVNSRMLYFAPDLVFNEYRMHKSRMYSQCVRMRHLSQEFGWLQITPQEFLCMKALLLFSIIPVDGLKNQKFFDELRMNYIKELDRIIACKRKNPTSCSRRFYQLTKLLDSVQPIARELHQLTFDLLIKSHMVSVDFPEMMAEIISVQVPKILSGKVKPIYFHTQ
Procedure: (§1) Compounds of the present invention were assayed in an in vitro AR luciferase reporter assay reporter assay, which can be used to determine the effect of compounds on AR transcriptional activity. CV1 cells were engineered to express an AR-regulated luciferase reporter, such that luciferase expression indicates AR transcriptional activity. A representative procedure for this assay follows.
(§2) CV1 cells (10^6 cells/10 cm plate) were cotransfected with 50 ng of SV40 Renilla Luciferase, 5 ug of ARE(4X)-Luciferase, and […] of one pWZL-AR expression construct using Lipofectamine 2000 (Invitrogen). Transfection media was removed 4-6 hours later and replaced with phenol red free DME-HG containing 10% charcoal stripped serum. The following day each plate was split into 24- or 48-well plates, in 10% CSS media, containing the indicated drugs in triplicate. Twenty-four to forty-eight hours later, luciferase activity was assayed using Dual-Luciferase Reporter Assay System (Promega) on a 96-well luminometer (Turner Biosystems). In some embodiments, a provided compound is considered to be a modulator of a tested AR if it results in similar effects on induced expression of luciferase in the luciferase reporter assay as compared with a reference androgen or anti-androgen.

[3] = tested on: AR WT; experiment: AR signaling and PARP cleavage in cells expressing AR WT (FIG. 27); format: cell-based
[4] = target: T2, AR (Homo sapiens, UniProt P10275, DEL79-80/DUP473-473); experiment: AR luciferase reporter assay, competition with DHT (FIG. 25); format: cell-based
T2 construct: expressed in transfected cells; host or cells: CV1 cells
T2 sequence (P10275 with tags, fused parts or gaps DEL79-80/DUP473-473): T1 sequence (P10275 with tags, fused parts or gaps DEL79-80/DUP473-473/F877L) with L876F
Procedure: as §1, §2

[5] = tested on: VCaP cells expressing mutant F876L androgen receptor; experiment: In vitro cell viability assay, VCaP cells expressing mutant F876L AR (FIG. 17); format: cell-based
[6] = tested on: CWR22PC cells expressing wild type androgen receptor; experiment: In vitro cell viability assay (CellTiterGLO), CWR22PC cells expressing wild-type AR (FIG. 18); format: cell-based; conditions: 10 uM, days 1, 4, 7
Procedure: (§3) Compounds of the present invention were also assayed in an in vitro cell viability assay in CWR22PC cancer cells. A representative procedure follows. CWR22PC cells ectopically expressing wild-type AR or AR F876L, cultured in full-serum containing media, were treated with vehicle (DMSO) or 10 uM of enzalutamide or compound I-1. CellTiterGLO assay was performed on days 1, 4, and 7 to determine cell viability. Results of a cell viability assay in CWR22PC cells are depicted in FIG. 18. On the y-axis RLU means relative light units. More light […] means more viable cells. In some embodiments, a provided compound is considered to be a modulator of a tested AR if it results in similar effects on cell viability as compared with a reference androgen or anti-androgen.

[7] = tested on: CWR22PC cells expressing mutant F876L androgen receptor; experiment: In vitro cell viability assay (CellTiterGLO), CWR22PC cells expressing AR F876L (FIG. 18); format: cell-based; conditions: 10 uM, days 1, 4, 7
Procedure: as §3

[8] = target: T1, AR F876L; experiment: AR signaling and PARP cleavage in cells expressing AR F876L (FIG. 27); format: cell-based
[9] = target: AR WT; conditions: LNCaP cells ectopically expressing AR WT; compared with AR F876L cells
Procedure: The cells were propagated in RPMI media supplemented with 10% CSS (charcoal-stripped, dextran-treated fetal bovine serum). Cells were trypsinized, washed in PBS, and triplicate cell samples were mixed with 20,000 cpm 18F-FDHT and increasing amounts of cold competitor (0.1 nM to 10 uM). The solutions were shaken on an orbital shaker at ambient temperature, and after 1 hour the cells were isolated and washed with ice-cold Tris-buffered saline using a Brandel cell harvester (Gaithersburg, Md.). All the isolated cell samples were counted using a scintillation counter, with appropriate standards of total activity and blank controls, and the specific uptake of ^18F-FDHT determined.

[10] = target: T3, mutant AR T877A (Homo sapiens, UniProt P10275, DEL79-80/DUP473-473/T878A); conditions: Ozers et al., Biochemistry (2007) 46, 683; cited from earlier work
T3 sequence (P10275 with tags, fused parts or gaps DEL79-80/DUP473-473/T878A): T1 sequence (P10275 with tags, fused parts or gaps DEL79-80/DUP473-473/F877L) with L876F, T877A

[11] = target: T3, mutant AR T877A; conditions: cited from earlier work

With CNC(=O)c1ccc(N2C(=S)N(c3ccc(C#N)c(C(F)(F)F)c3)C(=O)[C@@]23CCCC(C)(C)C3)cc1F (stereo in doubt) [Compound I-1, 4-(3-(4-cyano-3-(trifluoromethyl)phenyl)-7,7-dimethyl-4-oxo-2-thioxo-1,3-diazaspiro[4.5]decan-1-yl)-2-fluoro-N-methylbenzamide] the “ability to kill or inhibit the growth of cells” value [1] was “kill or inhibit the growth of VCaP cells”, the “potency as agonist for AR F876L compared with AR WT” value [2] was “more potent agonist for AR F876L than AR WT” and the “induction of PARP cleavage” value [3] was “induce PARP cleavage”. For the same compound, the “inhibition of AR signaling” value [3] was “inhibit AR signaling”, the “competition with dihydrotestosterone (DHT) for AR binding and induction of AR-regulated luciferase” value [4] was “effectively competes with dihydrotestosterone (DHT)” and the “ability to kill or inhibit the growth of cells” value [5] was “kill or inhibit the growth of VCaP cells”. The “ability to kill or inhibit the growth of cells” value [6] was “kill or inhibit the growth of CWR22PC cells”, the “ability to kill or inhibit the growth of cells” value [7] was “kill or inhibit the growth of CWR22PC cells” and the “induction of PARP cleavage” value [8] was “induce PARP cleavage”. For the same compound, the “inhibition of AR signaling” value [8] was “inhibit AR signaling”.

For C[C@]12CCC(=O)C[C@@H]1CC[C@@H]1[C@@H]2CC[C@]2(C)[C@@H](O)CC[C@@H]12 [DHT, dihydrotestosterone], the “IC50 for displacement of 18F-FDHT” value [9] was “comparable IC50”.

In the case of CC(C)(O)C(=O)Nc1ccc([N+](=O)[O-])c(C(F)(F)F)c1 [hydroxyflutamide], the “binding affinity to mutant AR T877A compared with AR WT” value [10] is given as “higher affinity” and the “agonist activity on mutant AR” value [11] is given as “act as AR agonists; also recorded: confers agonism”.
